US20230295157A1, “3-(1H-IMIDAZOL-2-YL)-2,3,8,8A-TETRAHYDROINDOLIZIN-5(1H)-ONE DERIVATIVES USEFUL AS FACTOR XIA INHIBITORS” (JANSSEN PHARMACEUTICA NV, priority 2020, published 2023)
pIC50: −log10 of the molar value. Like-named read-outs stand apart in the source and are kept apart here.

Legend:
[1] = biological target: human plasma kallikrein (Homo sapiens (Human), UniProt P03952); assay: Kallikrein inhibition assay (FLINT) utilizing a quenched AMC peptide substrate; format: biochemical; conditions: 30 min preincubation, read-out: Kallikrein Kin Inh IC50; for pIC50: kinetic reads over 30 min, Z-Gly-Pro-Arg-AMC substrate 50 μM
Sequence of human plasma kallikrein (P03952 391-638): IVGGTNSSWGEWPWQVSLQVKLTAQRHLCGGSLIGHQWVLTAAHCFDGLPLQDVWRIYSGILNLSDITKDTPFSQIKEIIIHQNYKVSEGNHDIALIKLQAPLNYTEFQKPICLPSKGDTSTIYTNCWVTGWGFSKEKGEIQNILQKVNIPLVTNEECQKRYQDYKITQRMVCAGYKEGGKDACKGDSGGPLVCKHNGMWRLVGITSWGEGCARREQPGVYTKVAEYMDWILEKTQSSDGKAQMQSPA
Sequence of human plasma kallikrein (P03952 20-390 partner): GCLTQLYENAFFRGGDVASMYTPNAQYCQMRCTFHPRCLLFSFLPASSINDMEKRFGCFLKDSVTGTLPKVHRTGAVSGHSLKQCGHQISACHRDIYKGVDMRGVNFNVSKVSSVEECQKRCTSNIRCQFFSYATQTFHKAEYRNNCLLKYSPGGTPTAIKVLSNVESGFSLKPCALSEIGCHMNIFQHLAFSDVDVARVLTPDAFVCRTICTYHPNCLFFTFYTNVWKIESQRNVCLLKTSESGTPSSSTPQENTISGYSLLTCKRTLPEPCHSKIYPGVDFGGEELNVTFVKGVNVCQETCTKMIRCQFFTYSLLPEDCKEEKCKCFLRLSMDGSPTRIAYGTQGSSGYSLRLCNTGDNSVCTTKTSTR
Procedure, shortened: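 Enzyme (2 nM final) pre-incubated 30 min at room temperature with compound (11-point, 3-fold, top 1 μM, 2% DMSO), then 50 μM Z-Gly-Pro-Arg-AMC added in Tris pH 7.5 buffer. Kinetic fluorescence 340/440 nm every 5 min over 30 min; IC50 from 4-parameter logistic fit.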

[2] = biological target: Factor XIa (Homo sapiens (Human), UniProt P03951); assay: Factor XIa inhibition assay (FLINT) utilizing a fluorophore-quencher pair peptide substrate; format: biochemical; conditions: 30 min preincubation, kinetic reads over 30 min, read-out: FXIa Kin Inh IC50
Sequence of Factor XIa (P03951 388-625): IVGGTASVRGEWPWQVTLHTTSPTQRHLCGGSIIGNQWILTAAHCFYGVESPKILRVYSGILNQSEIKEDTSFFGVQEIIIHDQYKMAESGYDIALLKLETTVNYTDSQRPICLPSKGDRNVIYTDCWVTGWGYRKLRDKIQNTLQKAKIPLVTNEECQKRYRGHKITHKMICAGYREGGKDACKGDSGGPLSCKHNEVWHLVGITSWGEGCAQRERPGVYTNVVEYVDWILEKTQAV
Sequence of Factor XIa (P03951 19-387 partner): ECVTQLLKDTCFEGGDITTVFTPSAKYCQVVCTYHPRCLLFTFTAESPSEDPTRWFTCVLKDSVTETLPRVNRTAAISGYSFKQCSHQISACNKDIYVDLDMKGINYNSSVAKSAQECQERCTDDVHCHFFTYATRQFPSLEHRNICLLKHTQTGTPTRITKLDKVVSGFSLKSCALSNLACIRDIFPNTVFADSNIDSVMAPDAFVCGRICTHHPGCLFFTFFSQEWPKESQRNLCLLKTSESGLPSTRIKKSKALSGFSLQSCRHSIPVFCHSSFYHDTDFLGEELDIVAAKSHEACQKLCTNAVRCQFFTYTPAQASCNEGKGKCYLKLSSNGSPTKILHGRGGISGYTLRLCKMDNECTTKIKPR
Procedure, shortened: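 FXIa ([…]) preincubated 30 min with compound (11-point 3-fold dilution, top 100 nM, 2% DMSO), then 15 μM quenched FXI Arg146-based peptide added; Tris pH 7.5, CaCl2, BSA, CHAPS. Fluorescence 485/520 nm read kinetically every 5 min over 30 min at RT; IC50 by 4-parameter fit.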

[3] = 5Fam-KLTRAETV-K5Tamra substrate 15 μM
[4] = 5Fam-[…]-K5Tamra substrate 15 μM

Compound	pIC50 [1]	pIC50 [2, 3]	IC50 ([1]; μM, kinetic reads) [µM]	pIC50 [2, 4]
CC(=O)Nc1cnc(C(F)(F)F)cc1-c1cnc([C@@H]2CC[C@H]3CC(c4c(-n5cnnn5)ccc(Cl)c4F)=CC(=O)N32)[nH]1 [Example 244, N-[4 [2-[(3S,8aS)-7-[3-Chloro-2-fluoro-6-(tetrazol-1-yl)phenyl]-5-oxo-2,3,8,8a-tetrahydro-1H-indolizin-3-yl]-1H-imidazol-5-yl]-6-(trifluoromethyl)-3-pyridyl]acetamide]	6.14	< 7.00		
O=C1C=C(c2c(-n3cc(C(F)(F)F)nn3)ccc(Cl)c2F)C[C@H]2CC[C@@H](c3ncc(-c4ccc(CO)nc4Cl)[nH]3)N12 [Example 223, (3S,8aR)-7-(3-Chloro-2-fluoro-6-(4-(trifluoromethyl)-1H-1,2,3-triazol-1-yl)phenyl)-3-(5-(2-chloro-6-(hydroxymethyl)pyridin-3-yl)-1H-imidazol-2-yl)-2,3,8,8a-tetrahydroindolizin-5(1H)-one]	6.86	7.80		
O=C1C=C(c2c(OC(F)F)ccc(Cl)c2F)C[C@H]2CC[C@@H](c3ncc(-c4ccnc(CO)c4F)[nH]3)N12 [Example 25, (3S,8aR)-7-(3-Chloro-6-(difluoromethoxy)-2-fluorophenyl)-3-(5-(3-fluoro-2-(hydroxymethyl)pyridin-4-yl)-1H-imidazol-2-yl)-2,3,8,8a-tetrahydroindolizin-5(1H)-one]	6.32	< 7.00		
Nc1ccn(-c2nccc(-c3cnc([C@H]4CC[C@@H]5CC(c6c(-n7cnnn7)ccc(Cl)c6F)=CC(=O)N54)[nH]3)c2F)n1 (single isomer, unassigned) [Example 63]	8.21			8.16
O=C1C=C(c2c(-n3cnnn3)ccc(Cl)c2F)C[C@H]2CC[C@@H](c3ncc(-c4ccnc5c4CCO5)[nH]3)N12 [Example 386, (3S,8aR)-7-(3-chloro-2-fluoro-6-(1H-tetrazol-1-yl)phenyl)-3-(5-(2,3-dihydrofuro[2,3-b]pyridin-4-yl)-1H-imidazol-2-yl)-2,3,8,8a-tetrahydroindolizin-5(1H)-one]	8.02	8.89		
O=C1C=C(c2cc(Cl)ccc2-n2cnnn2)C[C@H]2CC[C@@H](c3nc(F)c(-c4ccnc(CO)c4F)[nH]3)N12 [Example 80, (3S,8aR)-7-[5-chloro-2-(tetrazol-1-yl)phenyl]-3-[4-fluoro-5-[3-fluoro-2-(hydroxymethyl)-4-pyridyl]-1H-imidazol-2-yl]-2,3,8,8a-tetrahydro-1H-indolizin-5-one]	7.95	8.89		
Nc1ccc(-c2[nH]c([C@@H]3CC[C@@H]4CC(c5cc(Cl)ccc5-n5cnnn5)=CC(=O)N43)nc2F)c(F)n1 [Example 69, (3S,8aR)-3-(5-(6-amino-2-fluoropyridin-3-yl)-4-fluoro-1H-imidazol-2-yl)-7-(5-chloro-2-(1H-tetrazol-1-yl)phenyl)-2,3,8,8a-tetrahydroindolizin-5(1H)-one]	8.42	9.52		
CC(C)(O)CNc1nccc(-c2[nH]c([C@@H]3CC[C@@H]4CC(c5cc(Cl)ccc5-n5cnnn5)=CC(=O)N43)nc2F)c1F [Example 84, (3S,8aR)-7-[5-chloro-2-(tetrazol-1-yl)phenyl]-3-[4-fluoro-5-[3-fluoro-2-[(2-hydroxy-2-methyl-propyl)amino]-4-pyridyl]-1H-imidazol-2-yl]-2,3,8,8a-tetrahydro-1H-indolizin-5-one]	8.52	9.52		
O=C1C=C(c2cc(Cl)ccc2-n2cc(C(F)(F)F)nn2)C[C@H]2CC[C@@H](c3ncc(-c4ccc5[nH]c(=O)cnc5c4F)[nH]3)N12 (relative stereo) [Example 59, 6-(2-((3S*,8aR*)-7-(5-chloro-2-(4-(trifluoromethyl)-1H-1,2,3-triazol-1-yl)phenyl)-5-oxo-1,2,3,5,8,8a-hexahydroindolizin-3-yl)-1H-imidazol-5-yl)-5-fluoroquinoxalin-2(1H)-one]	7.92			8.51
C[C@H]1C[C@@H](c2ncc(-c3ccc(N)nc3F)[nH]2)N2C(=O)C=C(c3c(-n4cnnn4)ccc(Cl)c3F)C[C@@H]12 (single isomer, unassigned) [Example 346, (1*S,3S,8a*S)-3-(5-(6-Amino-2-fluoropyridin-3-yl)-1H-imidazol-2-yl)-7-(3-chloro-2-fluoro-6-(1H-tetrazol-1-yl)phenyl)-1-methyl-2,3,8,8a-tetrahydroindolizin-5(1H)-one]	8.09	8.89		

Results, then the compound that gave them:

pIC50 [1]	pIC50 [2, 3]	IC50 ([1]; μM, kinetic reads) [µM]	pIC50 [2, 4]	Compound
	< 6.70	1.1		CN(C)C(=O)c1ccccc1-c1c[nH]c([C@@H]2CCC3CC(c4c(-n5cnnn5)ccc(Cl)c4F)=CC(=O)N32)n1 (stereo partly drawn) [Example 288, 2-(2-((3S)-7-(3-Chloro-2-fluoro-6-(1H-tetrazol-1-yl)phenyl)-5-oxo-1,2,3,5,8,8a-hexahydroindolizin-3-yl)-1H-imidazol-4-yl)-N,N-dimethylbenzamide]
7.89	8.28			COc1ccccc1-c1c[nH]c([C@@H]2CCC3CC(c4c(-n5cnnn5)ccc(Cl)c4F)=CC(=O)N32)n1 (stereo partly drawn) [Example 317, (3S)-7-(3-Chloro-2-fluoro-6-(1H-tetrazol-1-yl)phenyl)-3-(4-(2-methoxyphenyl)-1H-imidazol-2-yl)-2,3,8,8a-tetrahydroindolizin-5(1H)-one]
8.09	9.30			[2H]c1cc(Cl)c(F)c(C2=CC(=O)N3[C@H](CC[C@H]3c3nc(-c4ccc(N)nc4F)c[nH]3)C2)c1-n1cnnn1 [Example 153, (3S,8aR)-3-[4-(6-amino-2-fluoro-3-pyridyl)-1H-imidazol-2-yl]-7-[3-chloro-5-deuterio-2-fluoro-6-(tetrazol-1-yl)phenyl]-2,3,8,8a-tetrahydro-1H-indolizin-5-one]
< 7.00			7.03	Nc1ccccc1-c1cnc([C@@H]2CC[C@H]3CC(c4c(-n5cnnn5)ccc(Cl)c4F)=CC(=O)N32)[nH]1 (relative stereo) [Example 308, (3S,8aS*)-3-(4-(2-Aminophenyl)-1H-imidazol-2-yl)-7-(3-chloro-2-fluoro-6-(1H-tetrazol-1-yl)phenyl)-2,3,8,8a-tetrahydroindolizin-5(1H)-one]
8.42	8.89			O=C1C=C(c2c(-n3cnnn3)ccc(Cl)c2F)C[C@H]2CC[C@@H](c3ncc(-c4ccnc5ccsc45)[nH]3)N12 [Example 387, (3S,8aR)-7-(3-chloro-2-fluoro-6-(1H-tetrazol-1-yl)phenyl)-3-(5-(thieno[3,2-b]pyridin-7-yl)-1H-imidazol-2-yl)-2,3,8,8a-tetrahydroindolizin-5(1H)-one]
7.52	7.94			CC(=O)N[C@H](C)c1ccc(-c2[nH]c([C@@H]3CCC4CC(c5c(-n6cnnn6)ccc(Cl)c5F)=CC(=O)N43)nc2F)cc1 (stereo partly drawn) [Example 11, N-[(1R)-1-[4-[2-[(3S)-7-[3-Chloro-2-fluoro-6-(tetrazol-1-yl)phenyl]-5-oxo-2,3,8,8a-tetrahydro-1H-indolizin-3-yl]-4-fluoro-1H imidazol-5-yl]phenyl]ethyl]acetamide]
8.66	9.22			O=C1C=C(c2c(-n3cnnn3)ccc(Cl)c2F)C[C@H]2CC[C@@H](c3ncc(-c4c[nH]c5ncncc45)[nH]3)N12 [Example 379, (3S,8aR)-3-(5-(7H-pyrrolo[2,3-d]pyrimidin-5-yl)-1H-imidazol-2-yl)-7-(3-chloro-2-fluoro-6-(1H-tetrazol-1-yl)phenyl)-2,3,8,8a-tetrahydroindolizin-5(1H)-one]
9.40			9.70	O=C(Nc1cnccc1-c1c[nH]c([C@@H]2CC[C@@H]3CC(c4c(-n5cnnn5)ccc(Cl)c4F)=CC(=O)N32)n1)C1CC1 (relative stereo) [Example 249, N-(4-(2-((3S,8a*R)-7-(3-Chloro-2-fluoro-6-(1H-tetrazol-1-yl)phenyl)-5-oxo-1,2,3,5,8,8a-hexahydroindolizin-3-yl)-1H-imidazol-4-yl)pyridin-3-yl)cyclopropanecarboxamide]
8.72	8.68			NC(=O)c1cc(-c2c[nH]c([C@@H]3CCC4CC(c5c(-n6cnnn6)ccc(Cl)c5F)=CC(=O)N43)n2)cs1 (stereo partly drawn) [Example 219, 4-(2-((3S)-7-(3-Chloro-2-fluoro-6-(1H-tetrazol-1-yl)phenyl)-5-oxo-1,2,3,5,8,8a-hexahydroindolizin-3-yl)-1H-imidazol-4-yl)thiophene-2-carboxamide]
9.00	9.40			CNc1n[nH]c2cc(-c3cnc([C@@H]4CC[C@H]5CC(c6c(-n7cnnn7)ccc(Cl)c6F)=CC(=O)N54)[nH]3)ccc12 [Example 265, (3S,8aS)-7-[3-Chloro-2-fluoro-6-(tetrazol-1-yl)phenyl]-3-[5-[3-(methylamino)-1H-indazol-6-yl]-1H-imidazol-2-yl]-2,3,8,8a-tetrahydro-1H-indolizin-5-one]
8.70	9.30			O=C1C=C(c2c(-n3cnnn3)ccc(Cl)c2F)CC2CC[C@@H](c3ncc(-c4ccc5[nH]c(=O)ncc5c4)[nH]3)N12 (stereo partly drawn) [Example 273, 6-(2-((3S)-7-(3-Chloro-2-fluoro-6-(1H-tetrazol-1-yl)phenyl)-5-oxo-1,2,3,5,8,8a-hexahydroindolizin-3-yl)-1H-imidazol-5-yl)quinazolin-2(1H)-one]
